According to US7912651B2, “Function homology screening” (BioSeek LLC, priority 2000, dated 2011):
Entries after “also recorded” stand apart in the source; their conditions may differ.

How the values were obtained:
TNF-R1 (p55) = TNF-R1 (p55) morpholino antisense in HUVEC, flow cytometry; assay type: cell-based, human; conditions: 4 hours
From the text: Morpholino phosphorodiamidate (MF) antisense oligonucleotides are used. Other chemical classes of antisense oligonucleotides that can be substituted for morpholinos include but are not limited to phosphorotioate oligonucleotides, N3′-P5′ phosphoramidate oligonucleotides (NP), locked nucleic acid (LNA), 2′-O-methoxyethyl nucleic acid (MOE), 2′-fluoro-arabinonucleic acid (FANA), peptide nucleic acids (PNA) (reviewed in Toulme, Nature Biotech. 19:17, 2001). In the example in FIG. 18, antisense oligonucleotides for TNF-R1 (p55) (5′-[…]-3′)(SEQ ID NO:1), and the beta-globin control oligo (5′-[…]-3′)(SEQ ID NO:2) (Gene Tools Inc.) are used. The transfection mixture is prepared by mixing […] of stock morpholino (0.5 mM), […], and 4 ml of 200 mM EPEI (Ethoxylated PolyEthylenimine), vortexed, incubated at room temperature for 20 minutes, and then mixed with 3.5 ml of serum-free media to give a final 0.6 μM morpholino concentration. HUVEC cells are plated the day before in 24-well plates at 4-6×10e4 cells/well. Cells are washed once with serum-free media and incubated with 0.4 ml of the morpholino transfection mixture at 37° C. for 3 hours. Morpholino is removed, regular media (Epithelial Growth Media with 2% fetal calf serum, Clonetics) is added and cells allowed to recover overnight. The efficiency of loading of cells with morphino is monitored in cells incubated with a fluorescent morpholino, and is typically essentially 100 percent. HUVEC cells are then treated with either TNF-α (0.5 ng/ml), or IL-1 (1 ng/ml), or media only. After 4 hours, cells are harvested and evaluated for the cell surface expression of ICAM-1 (1), VCAM-1 (2), E-selectin (3), and CD31 (4) by flow cytometry. […] The TNF-R1 antisense specifically blocks induction of ICAM-1 and VCAM-1 by TNF-α, while it has no effect on induction of the same markers by the independent cell surface receptor for IL-1.

HUVEC cells [1] = experiment: Optimized inflammatory assay combination: HUVEC treated with IL-1+TNF-α+IFN-γ, readout parameters by cell-based ELISA; parameters: species or system human; conditions: for activity (altered biomap) in the optimized assay combination: HUVEC, TNF-α (5 ng/ml)+IFN-γ (100 ng/ml)+IL-1, 24 hours
Procedure: Primary human umbilical vein endothelial cells (HUVEC) are used. Other cells that may replace HUVEC in the screen include primary microvascular endothelial cells, aortic or arteriolar endothelial cells or endothelial cell lines such as EAhy926 or E6-E7 4-5-2G cells or human telomerase reverse transcriptase-expressing endothelial cells (Simmons, J. Immunol., 148:267, 1992; Rhim, Carcinogenesis 19:673, 1998; Yang, J. Biol. Chem. 274:26141, 1999). 2×10^4 cells/ml are cultured to confluence in EGM-2 (Clonetics). Other media that may replace EGM-2 include EGM (Clonetics) and Ham's F12K medium supplemented with 0.1 mg/ml heparin and 0.03-0.05 mg/ml endothelial cell growth supplement (ECGS) and 10% FBS, or medium M199 (Life Technologies, Inc.) containing 20% fetal bovine serum and 2 ng/ml basic fibroblast growth factor (Jaffe, J. Clin. Invest. 52:2745, 1973; Hoshi, PNAS 81:6413, 1984). The disease environment present in chronic inflammatory diseases, such as Crohn's disease, differs from the normal condition by increased presence of multiple biologically active agents including IL-1, TNF-α, and IFN-γ (Woywodt, 1994; Kakazu, 1999). Other biologically active agents that may be increased in chronic inflammatory disease environments include IL-4, IL-6, IL-8, IL-12, IL-13, IL-18, TGFbeta, and histamine, as well as activated leukocytes and their products (Daig, 1996, Gut 38:216; Woywodt, 1994, Eur. cytokine Netw. 5:387; Kakazu, 1999 Am J. Gastroenterol. 94:2149; Pizarro, 1999, J. Immunol. 162:6829; Monteleone, 1999, J. Immunol. 163:143; […] Enteral Nutr 23:S20; Beck, 1999, […]. Bowel Dis. 5:44). Optimized assay combinations will contain at least two, and preferably three, four or more of these biologically active agents. Concentrations of agents are standard according to the literature, typically at physiologic concentrations. Concentrations may also be determined experimentally as the amount required to saturate the relevant receptor. A useful feature of the present invention is that combinatorial effects of multiple factors are observed over wide ranges of factor concentrations. Based on the factors included in an assay combination, a set of parameters for including in a biomap are selected. The experiments provided in FIG. 1A-1C illustrate the usefulness of the present invention in compound screening applications. […] After 24 hours, cultures are washed and evaluated for the presence of the parameters ICAM-1 (1), VCAM-1 (2), E-selectin (3), IL-8 (4), CD31 (5), HLA-DR (6) and MIG (7) by cell-based ELISA as described (Melrose, J. Immunol. 161:2457, 1998). For this, plates are blocked with 1% Blotto for 1 hr, and treated with primary antibodies (obtained from Pharmingen and Becton Dickinson) at 1 ng/ml for 2 hr. After washing, secondary peroxidase-conjugated anti-mouse IgG antibody (Promega) at 1:2500 is applied for 45 min. After washing, TMB substrate (Kierkegaard & Perry) is added and color developed. Development is stopped by addition of H2SO4 and the absorbance at 450 nm (subtracting the background absorbance at 600 nm) is read with a Molecular Dynamics plate reader. The relative expression levels of each parameter are indicated by the OD at 450 nm shown along the y-axis. The mean+/-SD from triplicate samples is shown. The assay combinations shown in FIG. 1 are useful in screening compounds that modulate TNF-α, IL-1 and IFN-γ signaling pathways, however, compounds must be evaluated separately in all three assay combinations to identify compounds that selectively modulate one or more of these pathways. In addition, compounds that selectively modulate combinatorial effects of these pathways cannot be distinguished. […] Confluent cultures of HUVEC cells are treated with TNF-α (5 ng/ml)+IFN-γ (100 ng/ml)+IL-1 (1 ng/ml) in the presence or absence of neutralizing anti-TNF-α or control antibody (Goat anti-IgG). […] In FIG. 3A, the relative expression of each parameter is shown along the y-axis as average value of the OD measured at 450 nm of triplicate samples. […]

HUVEC cells [2] = experiment: Lactate dehydrogenase (LDH) in HUVEC culture supernatants, CytoTox96 assay; assay type: cell-based, human; conditions: endothelial cell cultures
Procedure: Effect of over-expression of bcl-2 and bcl-xl proteins on a panel of assay combinations. HUVEC cells were transduced with either Bcl-2, Bcl-xL or control empty vector (control). Confluent cultures were treated with either ceramide (10 μm), TNF-α (5 ng/ml), ceramide (10 μm)+TNF-α (5 ng/ml), or media only. After 24 hours, cells were washed and evaluated for the surface expression of ICAM-1 (1), VCAM-1 (2), and MIG (3) by cell-based ELISA performed as described in FIG. 1. Cell supernatants were collected and analyzed for the presence of lactate dehydrogenase LDH (4) by CytoTox96 assay (Promega).
A panel of assay combinations that reproduces aspects of the response of the endothelial cells to inflammatory processes and stimuli enhancing apoptosis is used. […] Endothelial cells cultured under basal conditions display a low level of cell damage as measured by release of cytoplasmic lactate dehydrogenase from cells into the supernatant.

HUVEC cells [3] = experiment: HUVEC in basal medium cultured with factor or agent for 24 hours, cell-based ELISA; parameters: species or system human; conditions: HUVEC cultured with the factor/agent for 24 hours, vs basal medium
Procedure: After 24 hours, cultures are washed and evaluated for the presence of the parameters ICAM-1 (1), VCAM-1 (2), E-selectin (3), IL-8 (4), CD31 (5), HLA-DR (6) and MIG (7) by cell-based ELISA as described (Melrose, J. Immunol. 161:2457, 1998). For this, plates are blocked with 1% Blotto for 1 hr, and treated with primary antibodies (obtained from Pharmingen and Becton Dickinson) at 1 ng/ml for 2 hr. After washing, secondary peroxidase-conjugated anti-mouse IgG antibody (Promega) at 1:2500 is applied for 45 min. After washing, TMB substrate (Kierkegaard & Perry) is added and color developed. Development is stopped by addition of H2SO4 and the absorbance at 450 nm (subtracting the background absorbance at 600 nm) is read with a Molecular Dynamics plate reader. The relative expression levels of each parameter are indicated by the OD at 450 nm shown along the y-axis. The mean+/−SD from triplicate samples is shown.
After 24 hours, cultures are washed and evaluated for the presence of the parameters ICAM-1 (1), VCAM-1 (2), E-selectin (3), IL-8 (4), CD31 (5), HLA-DR (6) and MIG (7) by cell-based ELISA performed as described in FIG. 1 and are reported as the OD at 450 nm in FIG. 2. The mean+/−SD from triplicate samples are shown. * indicates p<0.05 comparing results obtained with the two separate conditions.
After 24 hours, cultures are washed and evaluated for the presence of the parameters ICAM-1 (1), VCAM-1 (2), E-selectin (3), IL-8 (4), CD31 (5), HLA-DR (6) and MIG (7) by cell-based ELISA performed as described in FIG. 1 and are reported as the OD at 450 nm. The mean+/−SD from triplicate samples are shown. * indicates p<0.05 comparing results obtained with the two separate conditions.

HUVEC cells [4] = experiment: HUVEC assay combinations with single pathway activators (TNF-α, IL-1, IFN-γ or activating antibody to p55), biomaps by cell-based ELISA; parameters: species or system human
Procedure: Confluent cultures of HUVEC cells are treated with TNF-α (5 ng/ml), IFN-γ (100 ng/ml), IL-1 (20 ng/ml), the combination of TNF-α+IFN-γ+IL-1, or media in the presence or absence of Act-anti-p55. After 24 hours, cultures are washed and evaluated for the cell surface expression of ICAM-1 (1), VCAM-1 (2), E-selectin (3), IL-8 (4), and MIG (5) by cell-based ELISA performed as described in FIG. 1. A color-coded representation of the resulting biomaps prepared from the data is shown in FIG. 8, coded as described in FIG. 2B. […]

Q: How did the “biomap versus control oligo upon treatment with TNF-α” value (TNF-R1 (p55); 0.6 μM morpholino, TNF-α (0.5 ng/ml)) turn out when “5′-AGGTCAGGCACGGTGGAGAGGC-3′ (all phosphorodiamidate morpholino (PMO)) [TNF-R1 antisense]” was run?
A: altered biomap

Q: What about the “induction of ICAM-1 by IL-1” value (TNF-R1 (p55); IL-1 (1 ng/ml)) of the same molecule?
A: no effect

Q: And the “induction of VCAM-1 by IL-1” value (TNF-R1 (p55); IL-1 (1 ng/ml))?
A: no effect

Q: What about the “induction of ICAM-1 by TNF-α” value (TNF-R1 (p55); TNF-α (0.5 ng/ml)) of the same molecule?
A: blocks

Q: And the “induction of VCAM-1 by TNF-α” value (TNF-R1 (p55); TNF-α (0.5 ng/ml))?
A: blocks

Q: How did the “activity (altered biomap) in the optimized assay combination” value (shortened to “activity (altered biomap)”) (HUVEC cells [1]) turn out when `N#CC(C#N)=Cc1ccc([N+](=O)[O-])c(O)c1` [AG126] was run?
A: active compounds

Q: Which “activity (altered biomap)” value (HUVEC cells [1]) does the source give for `CC(Cc1ccc(O)c(O)c1)C(C)Cc1ccc(O)c(O)c1` (stereo not shown) [NHGA, nordihydroguaiaretic acid] here?
A: altered biomaps

Q: With `COc1cccc(-c2cc(=O)c3ccccc3o2)c1N` [PD098059] as the molecule, how does the “activity (altered biomap)” value (HUVEC cells [1]) read?
A: altered biomaps

Q: For `S=C(S)N1CCCC1` [PDTC, pyrrolidine dithiocarbamate], which “activity (altered biomap)” value (HUVEC cells [1]) is on record?
A: altered biomaps

Q: `O=C(NC1=CC(=O)c2ccccc2C1=O)c1ccccc1` [PPM-18] was tested. Which “cellular toxicity at higher concentrations (2-fold) when tested alone” value (HUVEC cells [1]; 2-fold above PPM-18 2 μM / AG126 25 μM) did it give?
A: cellular toxicity

Q: What about the “activity (altered biomap)” value (HUVEC cells [1]) of the same molecule?
A: active compounds

Q: For ceramide, which “release of cytoplasmic lactate dehydrogenase into the supernatant (cell damage) vs basal conditions” value (HUVEC cells [2]) is on record?
A: enhanced

B1: IFN-γ: cytokine used as factor (protein)
chain: QDPYVKEAENLKKYFNAGHSDVADNGTLFLGILKNWKEESDRKIMQSQIVSFYFKLFKNFKDDQSIQKSVETIKEDMNVKFFNSNKKKRDDFEKLTNYSVTDLNVQRKAIHELIQVMAELSPAAKTGKRKRSQMLFRGRRASQ
Q: Which “level of HLA-DR” value (HUVEC cells [3]) does the source give for B1 here?
A: increased

Q: And the “level of ICAM-1” value (HUVEC cells [3])?
A: increased

Q: And the “level of MIG” value (HUVEC cells [3])?
A: increased

B2: p55-Fc: recombinant fusion protein containing the extracellular domains of the p55 TNF-α-receptor fused to immunoglobulin Fc domain (protein)
chain: LVPHLGDREKRDSVCPQGKYIHPQNNSICCTKCHKGTYLYNDCPGPGQDTDCRECESGSFTASENHLRHCLSCSKCRKEMGQVEISSCTVDRDTVCGCRKNQYRHYWSENLFQCFNCSLCLNGTVHLSCQEKQNTVCTCHAGFFLRENECVSCSNCKKSLECTKLCLPQIENVKGTEDSGTT
modifications: left off: a dimerising Fc or GST
notes: recombinant fusion protein containing the extracellular domains of the p55 TNF-α-receptor fused to immunoglobulin Fc domain
Q: For B2, which “activity (altered biomap)” value (HUVEC cells [1]) is on record?
A: active compound

Q: And the “biomap of cultures containing activating antibody to TNF-α-receptor p55: sensitivity to the agent” value (HUVEC cells [4]; Act-anti-p55, 24 hours)?
A: is sensitive; also recorded: alters

Q: What about the “biomap of the assay combination containing IL-1 alone: sensitivity to the agent” value (HUVEC cells [4]; IL-1, 24 hours) of the same molecule?
A: not sensitive

Q: And the “biomap of the assay combination containing TNF-α alone: sensitivity to the agent” value (HUVEC cells [4]; TNF-α (5 ng/ml), 24 hours)?
A: altered; also recorded: is sensitive
